In patent US20210220408A1, “ARYL HYDROCARBON RECEPTOR ANTAGONISTS AND METHODS OF USE” (Magenta Therapeutics Inc., priority 2018, published 2021) one finds IC50 data, which are given here for 85 molecules.

Bounds are passed on as bounds.

For orientation: IC50 means the midpoint of a concentration-inhibition curve.

This assay concerns the target T1, aryl hydrocarbon receptor (AHR) (Homo sapiens, UniProt P35869).
T1 sequence (P35869 11-848): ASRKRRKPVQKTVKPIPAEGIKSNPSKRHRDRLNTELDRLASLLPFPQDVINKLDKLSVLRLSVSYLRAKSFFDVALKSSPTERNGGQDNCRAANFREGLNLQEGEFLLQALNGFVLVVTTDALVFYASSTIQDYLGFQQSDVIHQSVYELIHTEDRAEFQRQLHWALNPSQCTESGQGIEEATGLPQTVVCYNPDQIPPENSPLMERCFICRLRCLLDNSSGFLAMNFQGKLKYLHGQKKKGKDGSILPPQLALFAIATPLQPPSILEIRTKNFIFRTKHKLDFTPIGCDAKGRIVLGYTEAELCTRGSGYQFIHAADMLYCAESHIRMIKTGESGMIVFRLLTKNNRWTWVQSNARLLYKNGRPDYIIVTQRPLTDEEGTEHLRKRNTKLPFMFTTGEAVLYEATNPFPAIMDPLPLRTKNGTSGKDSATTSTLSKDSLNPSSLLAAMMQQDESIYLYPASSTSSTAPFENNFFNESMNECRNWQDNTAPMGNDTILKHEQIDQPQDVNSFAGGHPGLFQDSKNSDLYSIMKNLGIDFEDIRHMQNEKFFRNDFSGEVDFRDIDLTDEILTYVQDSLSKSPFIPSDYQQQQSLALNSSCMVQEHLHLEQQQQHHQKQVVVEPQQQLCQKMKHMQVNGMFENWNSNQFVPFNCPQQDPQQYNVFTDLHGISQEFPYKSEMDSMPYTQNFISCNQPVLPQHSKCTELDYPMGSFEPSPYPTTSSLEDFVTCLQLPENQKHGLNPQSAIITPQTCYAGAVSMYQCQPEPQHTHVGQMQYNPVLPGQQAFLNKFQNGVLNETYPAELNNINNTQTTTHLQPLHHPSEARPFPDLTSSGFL
Description: DRE-Luciferase reporter high-throughput screen (AHR antagonist, VAF347-activated). On the technique in general: Reporter assays use an easily measured gene product as a stand-in for the process of interest.
For the molecule `C#CCOc1ccc(C(=O)Nc2cccc(OC)c2)cc1` [1A], the IC50 is greater than 2 µM. The value for `COc1ccc(C(=O)Nc2cccc(F)c2)cc1C` [1B] was 1 to 2 µM. The value for `O=C(Nc1ccc(-c2cnc(C3CC3)o2)cc1)c1cccc(F)c1` [2A] was greater than 2 µM; that for `COc1ccc(C(=O)Nc2ccc(C)c(F)c2)cc1` [2B] was 1 to 2 µM; that for `CCc1nnc(-c2ccc(NC(=O)c3ccccc3OC)cc2)o1` [3A] was 1 to 2 µM. The result for `O=C(Nc1ccc(-c2cnco2)cc1)c1ccc(F)cc1F` [3B] reads 0.2 to 0.5 µM. Take `O=C(Nc1cccc(Cl)c1)c1ccc(-n2cccn2)c([N+](=O)[O-])c1` [4A]: the IC50 lay in the range of 1 to 2 µM.

Molecule `CSc1ccccc1NC(=O)c1ccc(-c2ccccc2)cc1` [4B] yielded an IC50 greater than 2 µM. The value for `N#Cc1cccnc1Oc1ccc(NC(=O)c2ccc(F)cc2F)cc1` [5A] was 1 to 2 µM; that for `O=C(Nc1ccc(OC(F)F)c(Cl)c1)c1cccc(Cl)c1` [5B] was 0.5 to 1 µM. On to `O=C(Nc1ccc(OC(F)(F)F)cc1)c1ccc(F)cc1` [6A], for which the IC50 was in the range of 1 to 2 µM. Molecule `CCC(=O)Nc1ccc(Cl)c(NC(=O)c2ccc(OC(C)C)cc2)c1` [6B] had an IC50 of 0.5 to 1 µM.

The molecule `N#Cc1ccc(C(=O)Nc2ccc(Cl)c(C#N)c2)cc1` [7A] yielded a concentration for half-maximal inhibition (IC50) of 1 to 2 µM.

In the case of `CCOc1ccc(C(=O)Nc2ccccc2C(N)=O)cc1` [7B], the half-maximal inhibitory concentration (IC50) was in the range of 1 to 2 µM. `CCCCc1ccc(C(=O)Nc2ccccc2O)cc1` [8A] gave an IC50 greater than 2 µM.

The molecule `Cc1ccc(C(=O)Nc2ccc(Br)c(C)n2)c(Cl)c1` [8B] showed an IC50 of 0.5 to 1 µM. The result for `Cc1cc(C)n(-c2ccc(NC(=O)c3ccc(OC(F)F)cc3)cc2F)n1` [9A] reads greater than 2 µM. The value for `COc1ccc(C(=O)Nc2cc(C)cc(C)n2)cc1` [9B] was 1 to 2 µM; that for `O=C(Nc1ccc(-c2nccs2)cc1)c1ccc(CN2C(=O)CNC2=O)cc1` [10A] was 1 to 2 µM; that for `COc1ccc(Cl)cc1C(=O)Nc1ccc(NC(=O)c2cccc(S(C)(=O)=O)c2)c(Cl)c1` [10B] was 0.2 to 0.5 µM.

For the molecule `CCOc1ccc(NC(=O)c2c(C)coc2C)cc1` [11B], the IC50 was 0.5 to 1 µM.

`CCN(CC)c1ccc(NC(=O)c2cccnc2O)cc1` [12A] returned an IC50 of 1 to 2 µM. As for `Cc1ccccc1NC(=O)c1cc(-c2cnc(-c3ccccc3)nc2)cn1C` [12B], the IC50 lay within 1 to 2 µM.

As to `O=C(Nc1ccc(N2CCC(C(F)(F)F)CC2)nc1)c1cccc(Cl)c1` [13A], the IC50 is greater than 2 µM. The value for `Cc1noc(C)c1C(=O)Nc1ccc(-c2ccccc2)cc1` [13B] was 0.5 to 1 µM.

Molecule `CSc1nccc(NC(=O)c2cccc(C(F)(F)F)c2)n1` [14A] came in with a concentration for half-maximal inhibition (IC50) greater than 2 µM. In the case of `O=C(Nc1nc(-c2ccc(F)cc2)n[nH]1)c1cc(F)cc(F)c1` [14B], the concentration for half-maximal inhibition (IC50) fell in the range of 0.5 to 1 µM.

Regarding `Cc1cc(C)c2oc(-c3cccc(NC(=O)c4cccnc4)c3C)nc2c1` [15A], the IC50 lay within 1 to 2 µM. For `O=C(Nc1ccc(Cl)cc1)c1ccc(-c2ccccn2)s1` [15B], the IC50 lay within 0.5 to 1 µM. `COc1cccc(C(=O)Nc2cnc(-c3ccccc3)nc2)c1` [16A] returned an IC50 of 1 to 2 µM. The molecule `CNC(=O)c1ccsc1NC(=O)c1cccc(Oc2ccccc2)c1` [16B] yielded an IC50 of 1 to 2 µM.

`O=C(Nc1ncccc1Br)c1cc(-n2cccn2)ccn1` [17A]: the IC50 lay within 1 to 2 µM. For `O=C(Nc1ccc(C(F)(F)F)oc1=O)c1ccc(Cl)cc1` [17B], the IC50 is 0.5 to 1 µM. The value for `COc1ccc(NC(=O)c2ccc(C(F)(F)F)[nH]c2=O)cn1` [18A] was greater than 2 µM; that for `CS(=O)(=O)c1csc(C(=O)Nc2cccc(Cl)c2)c1Cl` [18B] was greater than 2 µM. In turn, `Cc1c(Cl)cccc1NC(=O)c1occc1COc1ccccc1` [19A] returned an IC50 of 1 to 2 µM. The result for `Cc1cc(NC(=O)c2nnn(-c3ccccc3)c2C)no1` [19B] reads greater than 2 µM; that for `CCOC(=O)c1c(N)sc(C(=O)Nc2cccc(C(F)(F)F)c2)c1C` [20A], 1 to 2 µM.

Molecule `COc1c(C(=O)Nc2ccc(Cl)cc2)ccc2ccccc12` [20B] displayed an IC50 of 0.5 to 1 µM. The value for `CC(=O)c1ccc(C(=O)Nc2ccc(C)cc2Cl)s1` [21A] was 1 to 2 µM; that for `O=C(Nc1cc2c(s1)CCCC2)c1ccccc1` [21B] was 1 to 2 µM; that for `Cc1nn(C(=O)Nc2ccccc2)c(C)c1Oc1ccccc1` [22A] was 1 to 2 µM. In turn, `Cc1ccc(C(=O)Nc2nc3c(C)cc(C)cc3s2)cc1` [22B] yielded an IC50 of 1 to 2 µM. Take `CCn1cc(C(=O)Nc2ccc(C(C)C)cc2)cn1` [23A]: the IC50 is 1 to 2 µM. Turning to `O=C(Nc1cc2ccccc2s1)c1ccccc1` [23B], the concentration for half-maximal inhibition (IC50) lay in the range of 1 to 2 µM. The result for `Cc1ccc(NC(=O)c2cc(C(C)C)n[nH]2)cc1` [24A] reads greater than 2 µM. The value for `Cn1nc(C(F)(F)F)c2cc(C(=O)Nc3ccc(F)cc3)sc21` [24B] was 0.5 to 1 µM; that for `Cc1ccc(C(=O)Nc2cc(C(C)(C)C)on2)cc1` [25A] was greater than 2 µM. The result for `COc1ccc2[nH]c(C(=O)Nc3ccc(Br)c(C)n3)cc2c1` [25B] reads 0.2 to 0.5 µM; that for `Cc1c(C(=O)Nc2ccccc2)nnn1Cc1ccccc1` [26A], 1 to 2 µM; that for `O=C(Nc1ccc(Cl)cn1)C1Cc2ccccc2C1` [26B], 0.5 to 1 µM. Take `O=C(Nc1nnc(-c2ccc(F)cc2)[nH]1)c1ccc(S(=O)(=O)C(F)F)cc1` [27A]: the IC50 lay in the range of 1 to 2 µM. Take `COc1ccccc1C(=O)Nc1c(C)cc(C)c2cccnc12` [27B]: the IC50 fell in the range of 1 to 2 µM. As for `N#Cc1cc(F)c(NC(=O)c2nsc(Cl)c2Cl)cc1F` [28A], the IC50 was 1 to 2 µM.

For the molecule `Cc1ccc(NC(=O)c2cc3c(=O)[nH]c(=O)n(C)c3nc2C)cc1Cl` [28B], the IC50 was 0.2 to 0.5 µM. The molecule `CC(=O)c1cc(NC(=O)c2ccc(Cl)cc2)c(=O)n(Cc2ccc(Cl)cc2)c1C` [29A] gave an IC50 of 1 to 2 µM. The value for `Cc1ccc(NC(=O)c2cc3ccccc3n(C)c2=O)cc1` [29B] was 1 to 2 µM. `CCc1c(C(=O)Nc2c(C)nn(-c3ccccc3)c2C)cnn1-c1ccc([N+](=O)[O-])cc1` [30A] had an IC50 of 1 to 2 µM. The value for `COc1ccc(NC(=O)c2noc3c2CC(C)CC3)cc1` (stereo not shown) [30B] was 1 to 2 µM.

Molecule `Cn1ccc(NC(=O)c2cc(-c3cccc(Cl)c3)[nH]n2)n1` [31A] showed an IC50 greater than 2 µM. Take `CCC1CCc2c(sc(NC(=O)c3c(C)noc3C)c2C(N)=O)C1` (stereo not shown) [31B]: the IC50 fell in the range of 1 to 2 µM.

Molecule `O=C(Nc1ccc(N2CCc3sccc3C2)nc1)c1cc(Br)c[nH]1` [32A] yielded an IC50 of 1 to 2 µM.

`N#Cc1c(NC(=O)c2cnn3cccnc23)sc2c1CCC2` [32B] yielded an IC50 of 1 to 2 µM. The result for `CCn1cc(C(=O)Nc2ccc(Br)cn2)cn1` [33A] reads greater than 2 µM. The value for `N#Cc1ccc(-c2csc(-c3ccsc3)n2)cc1` [33B] was 0.2 to 0.5 µM; that for `Cc1nc(NC(=O)c2cc(C(C)(C)C)n[nH]2)sc1SCC#N` [34A] was greater than 2 µM. The molecule `COc1ccc(OCc2nc(-c3cccc(F)c3)cs2)cc1` [34B] yielded an IC50 of 1 to 2 µM. The value for `O=C(Nc1ccc2ccccc2c1)c1cccc(NC(=O)C(F)(F)F)c1` [35A] was 1 to 2 µM; that for `COc1ccc(Br)cc1-c1nc(Cn2cnc(C#N)n2)cs1` [35B] was greater than 2 µM; that for `CS(=O)(=O)Nc1cccc(C(=O)Nc2cccc3cccnc23)c1` [36A] was 1 to 2 µM. The value for `Cn1c(N)c(-c2csc(-c3cccc(Cl)c3)n2)c(=O)n(C)c1=O` [36B] was 1 to 2 µM. On to `CC(C)c1nc2ccc(NC(=O)c3ccc(F)cc3)cc2[nH]1` [37A], for which the 50% inhibitory concentration (IC50) lay in the range of 1 to 2 µM.

Molecule `O=C(c1csc(-c2ccsc2)n1)N1CCCc2cc(C(F)(F)F)ccc21` [37B] registered an IC50 of 0.2 to 0.5 µM.

Molecule `Cc1cccc(NC(=O)c2ccc3c(c2)CC(C)O3)c1` (stereo not shown) [38A] registered a concentration for half-maximal inhibition (IC50) greater than 2 µM.

As for `Clc1ccc(-c2csc(-c3ccc4c(c3)CCO4)n2)s1` [38B], the IC50 fell in the range of 0.5 to 1 µM.

For `O=C(Nc1ccc2c(c1)ncn2-c1ccccc1)c1ccc(Cl)cc1` [39A], the IC50 was in the range of 1 to 2 µM. `CCn1c(-c2csc(N(C(C)=O)c3ccccc3)n2)nc2ccccc21` [39B] showed an IC50 of 1 to 2 µM.

Molecule `Cc1[nH]c2c(C(=O)Nc3cccc(CN4CCOC4=O)c3)cccc2c1C` [40A] gave a half-maximal inhibitory concentration (IC50) of 1 to 2 µM. The result for `CNc1nc(-c2sc3ncnn3c2C)cs1` [40B] reads 1 to 2 µM; that for `O=C(Nc1ccc2[nH]c(-c3ccc(Br)o3)nc2c1)c1ccc([N+](=O)[O-])cc1` [41A], greater than 2 µM; that for `O=C(Cn1cnnn1)N(CCc1ccccc1)c1nc(-c2ccccc2)cs1` [41B], 1 to 2 µM. On to `O=C(CN1CCCCCC1)Nc1sc2c(c1C(=O)Nc1ccc(Br)cc1)CCC2` [42A], for which the IC50 is 1 to 2 µM. The result for `Cn1nc(N2CCN(c3ccccc3Cl)CC2)c(=O)n(C)c1=O` [42B] reads 0.2 to 0.5 µM.

On to `CC(=O)Nc1ccc(NC(=O)c2cccc3c2OCC3)cc1` [43A], for which the half-maximal inhibitory concentration (IC50) was 1 to 2 µM. The value for `C/C(=N\NC(=O)c1ccco1)c1ccc(Cl)c(Cl)c1` [43B] was greater than 2 µM.
